The record followed here is patent US9746480B2, “Human myeloid derived suppressor cell cancer markers” (University of Southern California, priority 2011, dated 2017).

Entries after “also recorded” stand apart in the source; their conditions may differ.

Assay [1] has as its system CD33^+ MDSC. Put plainly: Reversal of suppressive function of tumor cell line-induced CD33+ MDSC by drugs. The class given is cell-based, human. The conditions noted are these: drug-treated CD33+ MDSC.
The subject of assay [2] is CD11b^+ MDSC. The assay is described as follows: qRT-PCR gene expression in treated CD11b+ MDSC. Particulars: treated vs untreated CD11b+ MDSC, mRNA. The class given is cell-based, human.
In assay [3] the test system is CD33^+ MDSC. The assay is described as follows: qRT-PCR gene expression in treated CD33+ MDSC. The class given is cell-based, human. The conditions noted are these: treated vs untreated CD33+ MDSC, mRNA. For orientation: In qPCR the cycle at which signal appears reflects the starting amount.
In assay [4] the test system is CD11b^+ MDSC. The assay is described as follows: Functional inhibition of tumor cell line-induced CD11b+ MDSC by drugs. Particulars: drug-treated CD11b+ MDSC.
Assay [5] relates to CD33^+ MDSC. The assay is described as follows: Suppression Assay in presence or absence of specific inhibitors of MDSC suppressive mechanisms. Particulars: tumor cell line-induced CD33+ MDSC, CD3/CD28-stimulated autologous T cells, with inhibitor. The assay is classed as cell-based, human. As for the experimental part:
Further characterization of tumor-induced canonical CD33^+ MDSC subset by analysis of the expression of putative MDSC suppression genes was performed. For these studies, expression of putative suppression genes was measured in tumor cell line-induced MDSC, including those induced by SCCL-MT1 HNSCC cell line and those induced by 4-998 osteogenic sarcoma, DU 145 prostate carcinoma, CAKI-1 renal cell carcinoma, SK-OV-3 ovarian carcinoma, and SW 608 and SW 732 colorectal adenocarcinoma cell lines (FIG. 6A), and compared to expression levels in normal, non-suppressive CD33^+ myeloid cells from medium only cultures. […] To determine the dominant mechanism of T cell suppression by this canonical CD33^+ MDSC subset, suppression assays were repeated in the presence or absence of specific inhibitors of ARG-1 (nor-NOHA), iNOS (L-NMMA), NOX2 (apocynin), VEGF (neutralizing antibody Avastin), or TGFβ1 (SB431542 or neutralizing antibody 1D11).

Turning to `CC1=C(/C=C/C(C)=C/C=C/C(C)=C/C(=O)O)C(C)(C)CCC1` [ATRA], the “CD33+ MDSC suppressive function” value in the assay on CD33^+ MDSC [1] was “Inhibition; also recorded: Reversal”. Also, in the assay on CD11b^+ MDSC [2], the C/EBPβ expression entry was “decreased”, the HIF1α expression result is “no change” and the STAT3 expression entry is recorded as “no change”. Moreover, in the assay on CD33^+ MDSC [3], the HIF1α expression entry is given as “decreased” and the STAT3 expression entry is on record as “decreased”. The “CD11b+ MDSC suppressive function” value with CD11b^+ MDSC [4] was “Functional inhibition”.

In the case of `COc1cc(C(C)=O)ccc1O` [apocynin], the “suppression of T cell proliferation by CD33+ MDSC” value in the assay with CD33^+ MDSC [5] was “statistically significant decreases in suppression”.

Regarding `N=C(NO)NCC[C@H](N)C(=O)O` [nor-NOHA], the “suppression of T cell proliferation by CD33+ MDSC” value with CD33^+ MDSC [5] is “statistically significant decreases in suppression”.

For lipopolysaccharide, in the assay with CD11b^+ MDSC [2], the ARG-1 expression result was “increased expression”, the C/EBPβ expression result is recorded as “further up-regulation”, the HIF1α expression result is reported as “further up-regulation” and the “NOX2-component NCF1 expression” value was “increased expression”. Also, in the assay with CD11b^+ MDSC [2], the STAT3 expression entry is given as “further up-regulation” and the iNOS expression result was “increased expression”. In addition, in the assay with CD33^+ MDSC [3], the ARG-1 expression result was “increased expression”, the C/EBPβ expression entry is “further up-regulation”, the HIF1α expression entry is reported as “further up-regulation” and the “NOX2-component NCF1 expression” value is “increased expression”. For the same compound, in the assay on CD33^+ MDSC [3], the STAT3 expression result was “further up-regulation” and the iNOS expression entry is given as “increased expression”.
